What was measured:
Type in all cases: in vivo
Italian ryegrass [1] = assay: Test Example 4: herbicidal effect in foliage treatment; conditions: dose 3.2 g/a, three weeks after the application
Outline: (§1)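 Sowing in sterilized diluvial soil, ~1.5 cm cover; growth 14 d, 25–30° C greenhouse; foliar spray of water-diluted EC at predetermined g/a; scoring 3 wk later on graded scale.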

giant foxtail [2] = assay: as above; conditions: dose 3.2 g/a, three weeks after the application
Outline: as §1

common ragweed [3] = assay: as above; conditions: dose 3.2 g/a, three weeks after the application
Outline: as §1

posumbu knotweed [4] = assay: as above; conditions: dose 3.2 g/a, three weeks after the application
Outline: as §1

large crabgrass [5] = assay: as above; conditions: dose 3.2 g/a, three weeks after the application
Outline: as §1

barnyardgrass [6] = assay: as above; conditions: dose 3.2 g/a, three weeks after the application
Outline: as §1

redroot pigweed [7] = assay: as above; conditions: dose 3.2 g/a, three weeks after the application
Outline: as §1

velvetleaf [8] = assay: as above; conditions: dose 3.2 g/a, three weeks after the application
Outline: as §1

common chickweed [9] = assay: as above; conditions: dose 3.2 g/a, three weeks after the application
Outline: as §1

beadstraw = assay: as above; conditions: dose 3.2 g/a, three weeks after the application
Outline: as §1

common lambsquater [10] = assay: as above; conditions: dose 3.2 g/a, three weeks after the application
Outline: as §1

water foxtail [11] = assay: as above; conditions: dose 3.2 g/a, three weeks after the application
Outline: as §1

bulrush [12] = assay: Test Example 1: herbicidal effects in preemergence treatment under submerged conditions; conditions: dose 2.52 g/a
Outline: (§2)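 Flooded-paddy preemergence assay; EC diluted with water, surface-applied at weed seeding; doses g/a; rice transplanted at 2.5 leaves; 0–5 mortality score after 3 weeks.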

barnyardgrass [13] = assay: as above; conditions: dose 2.52 g/a
Outline: as §2

ducksalad [14] = assay: as above; conditions: dose 2.52 g/a
Outline: as §2

transplanted rice = assay: Test Example 1: preemergence treatment under submerged conditions, effect on crop; conditions: dose 2.52 g/a
Outline: as §2

bulrush [15] = assay: Test Example 2: herbicidal effects during the vegetation period under submerged conditions; conditions: treatment during the vegetation period under submerged conditions; dose 2.52 g/a
Outline: (§3)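 Barnyardgrass, bulrush and ducksalad were co-sown in alluvial soil flooded to 4 cm and grown in a greenhouse at 25 to 30° C. At the 1- or 2-leaf stage, water-diluted emulsifiable concentrates went onto the water surface at set doses (g/a). Herbicidal effect was scored three weeks later on a graded scale.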

barnyardgrass [16] = assay: as above; conditions: treatment during the vegetation period under submerged conditions; dose 2.52 g/a
Outline: as §3

ducksalad [17] = assay: as above; conditions: treatment during the vegetation period under submerged conditions; dose 2.52 g/a
Outline: as §3

Italian ryegrass [18] = assay: Test Example 3: herbicidal effects in soil treatment; conditions: dose 3.2 g/a
Outline: (§4)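 Seeds were sown in sterilized diluvial soil and covered with about 1.5 cm of soil. Compounds, formulated as emulsifiable concentrates and diluted with water, were sprayed evenly over the soil surface at set doses in g/a. Herbicidal effect was scored on a rating scale three weeks later.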

giant foxtail [19] = assay: as above; conditions: dose 3.2 g/a
Outline: as §4

common ragweed [20] = assay: as above; conditions: dose 3.2 g/a
Outline: as §4

posumbu knotweed [21] = assay: as above; conditions: dose 3.2 g/a
Outline: as §4

large crabgrass [22] = assay: as above; conditions: dose 3.2 g/a
Outline: as §4

barnyardgrass [23] = assay: as above; conditions: dose 3.2 g/a
Outline: as §4

redroot pigweed [24] = assay: as above; conditions: dose 3.2 g/a
Outline: as §4

velvetleaf [25] = assay: as above; conditions: dose 3.2 g/a
Outline: as §4

common chickweed [26] = assay: as above; conditions: dose 3.2 g/a
Outline: as §4

common lambsquater [27] = assay: as above; conditions: dose 3.2 g/a
Outline: as §4

water foxtail [28] = assay: as above; conditions: dose 3.2 g/a
Outline: as §4

SMILES | H: Italian ryegrass, herbicidal effect (Italian ryegrass [1]) | E: giant foxtail, herbicidal effect (giant foxtail [2]) | J: common ragweed, herbicidal effect (common ragweed [3]) | M: posumbu knotweed, herbicidal effect (posumbu knotweed [4]) | D: large crabgrass, herbicidal effect (large crabgrass [5]) | A: barnyardgrass, herbicidal effect (barnyardgrass [6]) | K: redroot pigweed, herbicidal effect (redroot pigweed [7]) | I: velvetleaf, herbicidal effect (velvetleaf [8]) | N: common chickweed, herbicidal effect (common chickweed [9]) | O: beadstraw, herbicidal effect (beadstraw) | L: common lambsquater, herbicidal effect (common lambsquater [10]) | G: water foxtail, herbicidal effect (water foxtail [11]) | B: bulrush, herbicidal effect (evaluation scale 0-5) (bulrush [12]) | A: barnyardgrass, herbicidal effect (evaluation scale 0-5) (barnyardgrass [13]) | C: ducksalad, herbicidal effect (evaluation scale 0-5) (ducksalad [14]) | a: transplanted rice, effect on crop (evaluation scale 0-5) (transplanted rice) | B: bulrush, herbicidal effect (evaluation scale 0-5) (bulrush [15]) | A: barnyardgrass, herbicidal effect (evaluation scale 0-5) (barnyardgrass [16]) | C: ducksalad, herbicidal effect (evaluation scale 0-5) (ducksalad [17]) | herbicidal effect, H: Italian ryegrass (Italian ryegrass [18]) | also measured
CCC1CON(Cc2ccccc2N(C(=O)OCCCl)S(=O)(=O)C(F)(F)F)C(=O)O1 (stereo not drawn) [III-7] | 0 (mortality of less than 5% (almost ineffective)) | 3 (mortality of at least 40% and less than 70%) | 4 (mortality of at least 70% and less than 90%) | 0 (mortality of less than 5% (almost ineffective)) | 3 (mortality of at least 40% and less than 70%) | 5 (mortality of 90% or above (nearly complete death)) | 3 (mortality of at least 40% and less than 70%) | 0 (mortality of less than 5% (almost ineffective)) | 3 (mortality of at least 40% and less than 70%) | 2 (mortality of at least 20% and less than 40%) | 4 (mortality of at least 70% and less than 90%) | 5 (mortality of 90% or above (nearly complete death)) | 5 (mortality of 90% or above (nearly complete death)) | 5 (mortality of 90% or above (nearly complete death)) | 5 (mortality of 90% or above (nearly complete death)) | 0 (mortality of less than 5% (almost ineffective)) | 5 (mortality of 90% or above (nearly complete death)) | 5 (mortality of 90% or above (nearly complete death)) | 5 (mortality of 90% or above (nearly complete death)) | 4 (mortality of at least 70% and less than 90%) | herbicidal effect, E: giant foxtail (giant foxtail [19]): 5 (mortality of 90% or above (nearly complete death)); herbicidal effect, J: common ragweed (common ragweed [20]): 4 (mortality of at least 70% and less than 90%); herbicidal effect, M: posumbu knotweed (posumbu knotweed [21]): 4 (mortality of at least 70% and less than 90%); herbicidal effect, D: large crabgrass (large crabgrass [22]): 5 (mortality of 90% or above (nearly complete death)); herbicidal effect, A: barnyardgrass (barnyardgrass [23]): 5 (mortality of 90% or above (nearly complete death)); herbicidal effect, K: redroot pigweed (redroot pigweed [24]): 1 (mortality of at least 5% and less than 20%); herbicidal effect, I: velvetleaf (velvetleaf [25]): 0 (mortality of less than 5% (almost ineffective)); herbicidal effect, N: common chickweed (common chickweed [26]): 5 (mortality of 90% or above (nearly complete death)); herbicidal effect, L: common lambsquater (common lambsquater [27]): 4 (mortality of at least 70% and less than 90%); herbicidal effect, G: water foxtail (water foxtail [28]): 5 (mortality of 90% or above (nearly complete death))
CCOC(=O)N(c1ccccc1CN1OCC(C)(C)OC1=O)S(=O)(=O)C(F)(F)F [III-11] | 3 (mortality of at least 40% and less than 70%) | 4 (mortality of at least 70% and less than 90%) | 4 (mortality of at least 70% and less than 90%) | 4 (mortality of at least 70% and less than 90%) | 0 (mortality of less than 5% (almost ineffective)) | 5 (mortality of 90% or above (nearly complete death)) | 2 (mortality of at least 20% and less than 40%) | 4 (mortality of at least 70% and less than 90%) | 5 (mortality of 90% or above (nearly complete death)) | 5 (mortality of 90% or above (nearly complete death)) | 4 (mortality of at least 70% and less than 90%) | 5 (mortality of 90% or above (nearly complete death)) | 5 (mortality of 90% or above (nearly complete death)) | 5 (mortality of 90% or above (nearly complete death)) | 5 (mortality of 90% or above (nearly complete death)) | 0 (mortality of less than 5% (almost ineffective)) | 5 (mortality of 90% or above (nearly complete death)) | 5 (mortality of 90% or above (nearly complete death)) | 5 (mortality of 90% or above (nearly complete death)) | 4 (mortality of at least 70% and less than 90%) | herbicidal effect, E: giant foxtail (giant foxtail [19]): 5 (mortality of 90% or above (nearly complete death)); herbicidal effect, J: common ragweed (common ragweed [20]): 5 (mortality of 90% or above (nearly complete death)); herbicidal effect, M: posumbu knotweed (posumbu knotweed [21]): 5 (mortality of 90% or above (nearly complete death)); herbicidal effect, D: large crabgrass (large crabgrass [22]): 5 (mortality of 90% or above (nearly complete death)); herbicidal effect, A: barnyardgrass (barnyardgrass [23]): 5 (mortality of 90% or above (nearly complete death)); herbicidal effect, K: redroot pigweed (redroot pigweed [24]): 3 (mortality of at least 40% and less than 70%); herbicidal effect, I: velvetleaf (velvetleaf [25]): 4 (mortality of at least 70% and less than 90%); herbicidal effect, N: common chickweed (common chickweed [26]): 5 (mortality of 90% or above (nearly complete death)); herbicidal effect, L: common lambsquater (common lambsquater [27]): 5 (mortality of 90% or above (nearly complete death)); herbicidal effect, G: water foxtail (water foxtail [28]): 5 (mortality of 90% or above (nearly complete death))

From US20120029187A1, “HALOALKYLSULFONANILIDE DERIVATIVE” (Nissan Chemical Industries, Ltd., priority 2009, published 2012)
